According to patent publication US7541352B2, “Compounds for the treatment of hepatitis C” (Bristol-Myers Squibb Company, priority 2007, dated 2009):
pEC50, pIC50: −log10 of the molar value. Like-named read-outs stand apart in the source and are kept apart here.

Key:
[1] = target: T1, HCV NS5B RdRp genotype 1b (Hepatitis C virus genotype 1b, UniProt Q9WMX2); assay: Modified HCV NS5B RdRp enzyme assay (preincubation protocol); assay type: biochemical
T1 construct: The protein was expressed with an 18 amino acid C-terminal truncation to enhance the solubility; made in house; host or cells: E. coli BL21(DE3), pET21a
Procedure: HCV NS5B RdRp cloning, expression, and purification. The cDNA encoding the NS5B protein of HCV, genotype 1b, was cloned into the pET21a expression vector. The protein was expressed with an 18 amino acid C-terminal truncation to enhance the solubility. The E. coli competent cell line BL21(DE3) was used for expression of the protein. Cultures were grown at 37° C. for ˜4 hours until the cultures reached an optical density of 2.0 at 600 nm. The cultures were cooled to 20° C. and induced with 1 mM IPTG. Fresh ampicillin was added to a final concentration of 50 μg/ml and the cells were grown overnight at 20° C.
Cell pellets (3 L) were lysed for purification to yield 15-24 mgs of purified NS5B. The lysis buffer consisted of 20 mM Tris-HCl, pH 7.4, 500 mM NaCl, 0.5% triton X-100, 1 mM DTT, 1 mM EDTA, 20% glycerol, 0.5 mg/ml lysozyme, 10 mM MgCl2, 15 ug/ml deoxyribonuclease I, and Complete TM protease inhibitor tablets (Roche). After addition of the lysis buffer, frozen cell pellets were resuspended using a tissue homogenizer. To reduce the viscosity of the sample, aliquots of the lysate were sonicated on ice using a microtip attached to a Branson sonicator. The sonicated lysate was centrifuged at 100,000×g for 1 hr at 4° C. and filtered through a 0.2 μm filter unit (Corning).
The protein was purified using two sequential chromatography steps: Heparin sepharose CL-6B and polyu sepharose 4B (Pharmacia). The chromatography buffers were identical to the lysis buffer but contained no lysozyme, deoxyribonuclease I, MgCl2 or protease inhibitor and the NaCl concentration of the buffer was adjusted according to the requirements for charging the protein onto the column. Each column was eluted with a NaCl gradient which varied in length from 5-50 column volumes depending on the column type. After the final chromatography step, the resulting purity of the enzyme is >90% based on SDS-PAGE analysis. The enzyme was aliquoted and stored at −80° C.
Standard HCV NS5B RdRp enzyme assay. HCV RdRp genotype 1b assays were run in a final volume of 60 μl in 96 well plates (Corning 3600). The assay buffer is composed of 20 mM Hepes, pH 7.5, 2.5 mM KCl, 2.5 mM MgCl2, 1 mM DTT, 1.6 U RNAse inhibitor (Promega N2515), 0.01 mg/ml BSA (Sigma B6917), and 2% glycerol. All compounds were serially diluted (3-fold) in DMSO and diluted further in water such that the final concentration of DMSO in the assay was 2%. HCV RdRp genotype 1b enzyme was used at a final concentration of 28 nM. A polyA template was used at 6 nM, and a biotinylated oligo-dT 12 primer was used at 180 nM final concentration. Template was obtained commercially (Amersham 27-4110). Biotinylated primer was prepared by Sigma Genosys. 3H-UTP was used at 0.6 μCi (0.29 μM total UTP). Reactions were initiated by the addition of enzyme, incubated at 30° C. for 60 min, and stopped by adding 25 μl of 50 mM EDTA containing SPA beads (4 μg/μl, Amersham RPNQ 0007). Plates were read on a Packard Top Count NXT after >1 hr incubation at room temperature.
Modified HCV NS5B RdRp enzyme assay. A modified enzyme assay was performed essentially as described for the standard enzyme assay except for the following: The biotinylated oligo dT12 primer was precaptured on streptavidin-coated SPA beads by mixing primer and beads in assay buffer and incubating at room temperature for one hour. Unbound primer was removed after centrifugation. The primer-bound beads were resuspended in 20 mM Hepes buffer, pH 7.5 and used in the assay at final concentrations of 20 nM primer and 0.67 μg/μl beads. Order of addition in the assay: enzyme (1.75 nM) was added to diluted compound followed by the addition of a mixture of template (0.36 nM), 3H-UTP (0.6 μCi, 0.29 μM), and primer-bound beads, to initiate the reaction; concentrations given are final. Reactions were allowed to proceed for 4 hours at 30° C.
IC50 values for compounds were determined using seven different [I]. […]

HCV replicon cells = assay: HCV replicon FRET assay; assay type: cell-based
Procedure: FRET Assay Preparation. The HCV FRET screening assay was performed in 96-well cell culture plates. The FRET peptide (Anaspec, Inc.) (Taliani et al., Anal. Biochem. 1996, 240, 60-67) contains a fluorescence donor, EDANS, near one end of the peptide and an acceptor, DABCYL, near the other end. The fluorescence of the peptide is quenched by […] resonance energy transfer (RET) between the donor and the acceptor, but as the NS3 protease cleaves the peptide the products are released from RET quenching and the fluorescence of the donor becomes apparent. The assay reagent was made as follows: 5× cell Luciferase cell culture lysis reagent from Promega (#E153A) diluted to 1× with dH2O, NaCl added to 150 mM final, the FRET peptide diluted to 20 μM final from a 2 mM stock.
To prepare plates, HCV replicon cells, with or without a Renilla luciferase reporter gene, were trypsinized and plated in a 96-well plate with titrated test compounds added in columns 3 through 12; columns 1 and 2 contained a control compound (HCV control inhibitor), and the bottom row contained cells with DMSO only. The plates were then placed in a CO2 incubator at 37° C.
Assays. Subsequent to addition of the test compounds described above (FRET Assay Preparation), at various times the plate was removed and Alamar blue solution (Trek Diagnostics, #00-100) was added to measure cellular toxicity. After reading in a Cytoflour 4000 instrument (PE Biosystems), plates were rinsed with PBS and then used for FRET assay by the addition of 30 ul of the FRET peptide assay reagent described above (FRET Assay Preparation) per well. The plate was then placed into the Cytoflour 4000 instrument which had been set to 340 excite/490 emission, automatic mode for up to 20 cycles and the plate read in a kinetic mode. Typically, the signal to noise using an endpoint analysis after the reads was at least three-fold. Alternatively, after Alamar blue reading, plates were rinsed with PBS, then used for luciferase assay using the Promega Dual-Glo Luciferase Assay System or the Promega EnduRen Live Cell Substrate assay.
Compound analysis was performed by quantification of the relative HCV replicon inhibition and the relative cytotoxicity values. To calculate cytoxicity values, the average Alamar Blue fluorescence signals from the control wells were set as 100% non-toxic. The individual signals in each of the compound test wells were then divided by the average control signal and multiplied by 100% to determine […]. To calculate the HCV replicon inhibition values, an average background value was obtained from the two wells containing the highest amount of HCV control inhibitor at the end of the assay period. These numbers were similar to those obtained from naïve Huh-7 cells. The background numbers were then subtracted from the average signal obtained from the control wells and this number was used as 100% activity. The individual signals in each of the compound test wells were then divided by the averaged control values after background subtraction and multiplied by 100% to determine percent activity. EC50 values were calculated as the concentration which caused a 50% reduction in FRET or luciferase activity. The two numbers generated for the compound plate, percent cytoxicity and percent activity, were used to determine compounds of interest for further analysis.

[2] = HCV NS5B RdRp, determined using the preincubation protocol, read-out: IC50
[3] = Hepatitis C virus, HCV replicon cells, determined using the FRET assay, read-out: EC50

T1 sequence (Q9WMX2 2420-2992): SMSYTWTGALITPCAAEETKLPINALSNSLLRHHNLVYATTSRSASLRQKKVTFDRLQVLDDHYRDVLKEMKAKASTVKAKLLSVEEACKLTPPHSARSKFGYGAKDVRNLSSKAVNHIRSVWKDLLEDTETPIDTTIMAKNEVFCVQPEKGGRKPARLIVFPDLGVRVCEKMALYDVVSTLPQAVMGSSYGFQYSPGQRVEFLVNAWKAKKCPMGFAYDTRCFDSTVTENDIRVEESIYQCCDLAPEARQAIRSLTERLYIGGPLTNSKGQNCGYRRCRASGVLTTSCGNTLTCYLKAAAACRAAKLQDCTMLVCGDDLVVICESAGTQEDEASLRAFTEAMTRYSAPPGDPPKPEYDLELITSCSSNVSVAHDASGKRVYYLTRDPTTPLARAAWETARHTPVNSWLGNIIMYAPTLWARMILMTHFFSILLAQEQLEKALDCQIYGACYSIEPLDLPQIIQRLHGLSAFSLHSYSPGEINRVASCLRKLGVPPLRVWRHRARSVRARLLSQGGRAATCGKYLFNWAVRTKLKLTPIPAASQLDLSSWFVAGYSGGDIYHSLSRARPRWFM

Compound | pIC50 [1, 2] | pEC50 (HCV replicon cells; [3]) | pIC50 [1] | pEC50 (HCV replicon cells; Hepatitis C virus) | pEC50 (HCV replicon cells; HCV replicon cells, determined using the FRET assay, read-out: EC50)
COc1ccc2c(c1)CC(NC(=O)C(=O)N(C)C)Cn1c-2c(C2CCCCC2)c2ccc(C(=O)NS(=O)(=O)N(C)C)cc21 (stereo not drawn) | 6.30 to 9.00 | 6.30 to 9.00 |  |  | 
COc1ccc2c(c1)[C@@H]1C[C@]1(NC(=O)C(=O)N(C)C)Cn1c-2c(C2CCCCC2)c2ccc(C(=O)NS(=O)(=O)N(C)C)cc21 [drawing 40] | 6.30 to 9.00 | 6.30 to 9.00 |  |  | 
COc1ccc2c(c1)CC(NC(=O)C(=O)N1C3CCC1CN(C)C3)Cn1c-2c(C2CCCCC2)c2ccc(C(=O)NS(=O)(=O)N(C)C)cc21 (stereo not drawn) |  |  | 6.30 to 9.00 | 6.30 to 9.00 | 
COc1ccc2c(c1)C1CC1(NC(=O)C(=O)N1C3CCC1CN(C)C3)Cn1c-2c(C2CCCCC2)c2ccc(C(=O)NS(=O)(=O)N(C)C)cc21 (stereo not drawn) |  |  | 6.30 to 9.00 | 6.30 to 9.00 | 
COc1ccc(S(=O)(=O)NC23CC2c2cc(OC)ccc2-c2c(C4CCCCC4)c4ccc(C(=O)NS(=O)(=O)N(C)C)cc4n2C3)c(OC)c1 (stereo not drawn) | 6.30 to 9.00 | 6.30 to 9.00 |  |  | 
COc1ccc2c(c1)C1CC1(N(C)C(=O)C(=O)N1CC(OC)C1)Cn1c-2c(C2CCCCC2)c2ccc(C(=O)NS(=O)(=O)N(C)C)cc21 (stereo not drawn) | 6.30 to 9.00 | 6.30 to 9.00 |  |  | 
COc1ccc2c(c1)[C@@H]1C[C@]1(NC(=O)C(=O)N1C[C@@H](C)O[C@@H](C)C1)Cn1c-2c(C2CCCCC2)c2ccc(C(=O)NS(=O)(=O)N(C)C)cc21 [drawing 34] | 6.30 to 9.00 | 6.30 to 9.00 |  |  | 
COc1ccc2c(c1)C1CC1(NC(=O)C(=O)N(C)C)Cn1c-2c(C2CCCCC2)c2ccc(C(=O)NS(=O)(=O)C(C)C)cc21 (stereo not drawn) | 6.30 to 9.00 | 6.30 to 9.00 |  |  | 
COc1ccc2c(c1)C1CC1(NC(=O)C(=O)N1CCN(C)CC1)Cn1c-2c(C2CCCCC2)c2ccc(C(=O)NS(=O)(=O)N(C)C)cc21 (stereo not drawn) | 6.30 to 9.00 | 6.30 to 9.00 |  |  | 
COc1ccc2c(c1)[C@H]1C[C@@]1(NC(=O)C(=O)N(C)C)Cn1c-2c(C2CCCCC2)c2ccc(C(=O)NS(=O)(=O)N(C)C)cc21 [drawing 42] | 6.30 to 9.00 | 6.30 to 9.00 |  |  | 
COc1ccc2c(c1)[C@@H]1C[C@]1(NC(=O)C(=O)N1CCOCC1c1ccccc1)Cn1c-2c(C2CCCCC2)c2ccc(C(=O)NS(=O)(=O)N(C)C)cc21 (stereo partly drawn) | 6.30 to 9.00 | 6.30 to 9.00 |  |  | 
COc1ccc2c(c1)C1CC1(NC(=O)N1C3CCC1CN(C)C3)Cn1c-2c(C2CCCCC2)c2ccc(C(=O)NS(=O)(=O)N(C)C)cc21 (stereo not drawn) |  |  | 6.30 to 9.00 | 6.30 to 9.00 | 
CCC(C)S(=O)(=O)NC(=O)c1ccc2c(C3CCCCC3)c3n(c2c1)CC1(NC(=O)C(=O)N(C)C)CC1c1cc(OC)ccc1-3 (stereo not drawn) | 6.30 to 9.00 | 6.30 to 9.00 |  |  | 
COc1ccc2c(c1)C1CC1(NC(=O)C(=O)N1CCCN(C)CC1)Cn1c-2c(C2CCCCC2)c2ccc(C(=O)NS(=O)(=O)N(C)C)cc21 (stereo not drawn) | 6.30 to 9.00 | 6.30 to 9.00 |  |  | 
COc1ccc2c(c1)C1CC1(NC(=O)C(=O)N1CC(C)N(C)C(C)C1)Cn1c-2c(C2CCCCC2)c2ccc(C(=O)NS(=O)(=O)N(C)C)cc21 (stereo not drawn) | 6.30 to 9.00 | 6.30 to 9.00 |  |  | 
COc1ccc2c(c1)C1CC1(NC(=O)C(=O)N(C)C)Cn1c-2c(C2CCCCC2)c2ccc(C(=O)NS(=O)(=O)CC(C)(C)C)cc21 (stereo not drawn) | 6.30 to 9.00 | 6.30 to 9.00 |  |  | 
COc1ccc2c(c1)C1CC1(NS(=O)(=O)N1CCOCC1)Cn1c-2c(C2CCCCC2)c2ccc(C(=O)NS(=O)(=O)N(C)C)cc21 (stereo not drawn) | 6.30 to 9.00 | 6.30 to 9.00 |  |  | 
COc1ccc2c(c1)[C@@H]1C[C@]1(NC(=O)C(=O)N(C)C)Cn1c-2c(C2CCCCC2)c2ccc(C(=O)NS(=O)(=O)N(C)C)cc21 [drawing 35] | 6.30 to 9.00 | 6.30 to 9.00 |  |  | 
COc1ccc2c(c1)C1CC1(NC(=O)C(=O)N1CCCC1)Cn1c-2c(C2CCCCC2)c2ccc(C(=O)NS(=O)(=O)N(C)C)cc21 (stereo not drawn) [drawing 39] | 6.30 to 9.00 |  |  |  | 6.30 to 9.00
COc1ccc2c(c1)C1CC1(NC(=O)C(=O)N1CC(OC)C1)Cn1c-2c(C2CCCCC2)c2ccc(C(=O)NS(=O)(=O)N(C)C)cc21 (stereo not drawn) | 6.30 to 9.00 | 6.30 to 9.00 |  |  | 
COc1ccc2c(c1)[C@H]1C[C@@]1(NC(=O)C(=O)N(C)C)Cn1c-2c(C2CCCCC2)c2ccc(C(=O)NS(=O)(=O)N(C)C)cc21 [drawing 37] | 6.30 to 9.00 |  |  |  | 
COc1ccc(C2COCCN2C(=O)C(=O)NC23CC2c2cc(OC)ccc2-c2c(C4CCCCC4)c4ccc(C(=O)NS(=O)(=O)N(C)C)cc4n2C3)cc1 (stereo not drawn) | 6.30 to 9.00 | 6.30 to 9.00 |  |  | 
COc1ccc2c(c1)C1CC1(NC(=O)N1CC3CN(Cc4ccccc4)CC(C1)N3Cc1ccccc1)Cn1c-2c(C2CCCCC2)c2ccc(C(=O)NS(=O)(=O)N(C)C)cc21 (stereo not drawn) |  |  | 6.30 to 9.00 |  | 
COc1ccc2c(c1)C1C[C@@]1(NC(=O)C(=O)N(C)C)Cn1c-2c(C2CCCCC2)c2ccc(C(=O)NS(=O)(=O)N(C)C)cc21 (stereo partly drawn) [drawing 37] |  | 6.30 to 9.00 |  |  | 
